From patent US7332489B2, “Methods and compositions of novel triazine compounds” (Reddy US Therapeutics, Inc., priority 2003, dated 2008)
Read-outs that look alike come from different tables or passages of the source.

Test system: TNF-α induced IL-6
Assay: TNF-α-induced IL-6 production determined by IL-6 ELISA
Type: cell-based
Settings: for % IL6 production compare to TNF stimulation of IL6 (100%), Compds tested @ 10 uM HAEC, IL6: 10 uM compound; for activity at 10 µM / inhibition at 10 µM: Homo sapiens; for activity at 10 µM: class = % of control IL6 production; for Inflammation Data (result in words): concentration not given
Method: Human aortic endothelial cells (HAEC, Clonetics) were cultured according to manufacturer in growth medium (Clonetics): basal medium containing human epidermal growth factor, hydrocortisone, vascular endothelial growth factor, heparin binding growth factor-B, long R3-insulin-like growth factor-1, ascorbic acid, gentamicin/amphotericin and 5% FBS. These cell were allowed to reach at least 90% confluency before subjected to experimental treatments. […] Tumor necrosis factor α was from R&D Systems.
All treatments, compound-added and controls were carried out in serum free media containing 0.2% albumin. Media from all conditions were collected and used for IL-6 ELISA.
IL-6 ELISA was carried out using human IL-6 DuoSet ELISA development kit as described by manufacturer (R&D Systems). Mouse anti-human Il-6 was used as the capture antibody (2 ug/ml) and biotinylated goat anti-human IL-6 (200 ng/ml) was used as the detection antibody. Culture media were incubated with capture antibody (in 96 well) for 2 h at room temperature. Wells were washed three times with wash buffer (0.05% tween-20 in phosphate buffered saline (PBS) pH 7.4) followed by incubation with detection antibody for 2 h at room temperature. Following three washes wells were incubated with Streptavidin-HRP for 20 min. Color development was read at 450 nm in a Microplate reader.

[1] = 24 h, Table 5, first part, read-out: Inhibition of TNF-induced IL6 production
[2] = 24 h, Table 5, second part, column 1, read-out: Inhibition of TNF-induced IL6, production
[3] = 24 h, Table 7, first part, read-out: Inhibition of TNF-induced IL6 production
[4] = 10 uM, read-out: Inflammation Data, inhibition at 10 uM

Row | SMILES | activity at 10 µM [1] | activity at 10 µM [2] | further results
1 | CCN1CCC[C@@H]1CNc1nc(NCC2CCCCC2)nc(Nc2ccc(OC)c(F)c2)n1 [Compound 142, N^2-cyclohexylmethyl-N^4-((R)-1-ethyl-pyrrolidin-2-ylmethyl)-N^6-(3-fluoro-4-methoxyphenyl)-1,3,5-triazine-2,4,6-triamine] | 0 to 25% |  | % IL6 production compare to TNF stimulation of IL6 (100%), Compds tested @ 10 uM HAEC, IL6 (HAEC, TNF stimulation = 100%): 21.62%
2 | CCN1CCCC1CNc1nc(NCC(F)(F)F)nc(Nc2ccc(OC)c(F)c2)n1 (stereo not drawn) [Compound 67, N^2-[(1-ethyl-2-pyrrolidinyl)methyl]-N^4-(3-fluoro-4-methoxyphenyl)-N^6-(2,2,2-trifluoroethyl)-1,3,5-triazine-2,4,6-triamine] |  | 25 to 50% | 
3 | COc1ccc(Nc2nc(N3CCOCC3)nc(N3CCN(Cc4ccccc4)CC3)n2)cc1 [Compound 173, [4-(4-Benzyl-piperazin-1-yl)-6-morpholin-4-yl-[1,3,5]tri-azin-2-yl]-(4-methoxy-phenyl)-amine] |  |  | inhibition at 10 µM [3]: 65 to 85%
4 | COc1ccc(Nc2nc(NC3CCCCCC3)nc(N(C)C3CCN(C)CC3)n2)cc1F [Compound 171, N-Cycloheptyl-N′-(3-fluoro-4-methoxy-phenyl)-N″-methyl-N″-(1-methyl-piperidin-4-yl)-[1,3,5]tri-azine-2,4,6-triamine] |  |  | inhibition at 10 µM (24 h, read-out: Inhibition of TNF-induced IL6 production, Table 7, first part): 85 to 100%; inhibition at 10 µM (24 h, read-out: Inhibition of TNF-induced IL6 production, Table 7, second part, column 1): 65 to 85%; % IL6 production compare to TNF stimulation of IL6 (100%), Compds tested @ 10 μM HAEC, IL6 (Table 7, HAEC, 10 μM compound, TNF stimulation = 100%): 21%
5 | COc1ccc(Nc2nc(NC3CCCCCC3)nc(N(C)Cc3ccccc3)n2)cc1 [Compound 178, N-Benzyl-N′-cycloheptyl-N″-(4-methoxy-phenyl)-N-methyl-[1,3,5]triazine-2,4,6-tri-amine] |  |  | inhibition at 10 µM [3]: 65 to 85%
6 | CCN1CCCC1CNc1nc(Nc2ccc(OC)c(F)c2)nc(N2CCCC2)n1 (stereo not drawn) [Compound 57, N^2-[(1-ethyl-2-pyrrolidinyl)methyl]-N^4-(3-fluoro-4-methoxyphenyl)-6-(1-pyrrolidinyl)-1,3,5-triazine-2,4-diamine] | 0 to 25% | 25 to 50% | 
7 | CCN1CCCC1CNc1nc(Nc2ccc(C#N)cc2)nc(NC2CCCCCC2)n1 (stereo not drawn) [Compound 11, 4-[(4-(cycloheptylamino)-6-{[(1-ethyl-2-pyrrolidinyl)methyl]amino}-1,3,5-triazin-2-yl)-amino]benzonitrile] |  | 0 to 25% | 
8 | CCN1CCCC1CNc1nc(Nc2ccc(OC)c(F)c2)nc(N2CCN(CC(=O)N3CCCC3)CC2)n1 (stereo not drawn) [Compound 69, N^2-[(1-ethyl-2-pyrrolidinyl)methyl]-N^4-(3-fluoro-4-methoxyphenyl)-N^6-{4-[2-oxo-2-(1-pyrrolidinyl)ethyl]-1-piperazinyl}-1,3,5-triazine-2,4-diamine] | 0 to 25% | 0 to 25% | 
9 | COc1ccc(Nc2nc(NC3CCCCCC3)nc(N3CCSCC3)n2)cc1Cl [drawing 1604] |  |  | Inflammation Data (result in words): Not Active
10 | COc1ccc(Nc2nc(NC3CCCCCC3)nc(N3CCCC4CCCCC43)n2)cc1F (stereo not drawn) [Compound 84, N^2-cycloheptyl-N^4-(3-fluoro-4-methoxyphenyl)-6-octahydro-1(2H)-quinolinyl-1,3,5-triazine-2,4-diamine] | 25 to 50% |  | 
11 | COc1ccc(Nc2nc(NCc3ccccc3)nc(NC3CCCCCC3)n2)cc1F [Compound 78, N^2-benzyl-N^4-cycloheptyl-N^6-(3-fluoro-4-methoxyphenyl)-1,3,5-triazine-2,4,6-triamine] | 25 to 50% |  | 
12 | COc1ccc(Nc2nc(NC3CCCCCC3)nc(N3CCN(C(C)=O)CC3)n2)cc1F [Compound 88, 6-(4-acetyl-1-piperazinyl)-N^2-cycloheptyl-N^4-(3-fluoro-4-methoxyphenyl)-1,3,5-triazine-2,4-diamine] | 0 to 25% |  | 
13 | CCN1CCCC1CNc1nc(Nc2ccc3c(c2)OCCO3)nc(NC2CCCCCC2)n1 (stereo not drawn) [Compound 24, N^2-cycloheptyl-N^4-(2,3-dihydro-1,4-benzodioxin-6-yl)-N^6-[(1-ethyl-2-pyrrolidinyl)methyl]-1,3,5-triazine-2,4,6-triamine] |  | 0 to 25% | 
14 | CCOC(=O)N1CCN(c2nc(NCC3CCCN3CC)nc(Nc3ccc(OC)c(F)c3)n2)CC1 (stereo not drawn) [Compound 64, Ethyl 4-{4-{[(1-ethyl-2-pyrrolidinyl)methyl]amino}-N^6-[(3-fluoro-4-methoxyphenyl)amino]-1,3,5-triazin-2-yl}-1-piperazinecarboxylate] | 25 to 50% |  | 
15 | COc1ccc(Nc2nc(NC3CCCCCC3)nc(Oc3ccccc3F)n2)cc1Cl [drawing 1605] |  |  | Inflammation Data (result in words): Not Active
16 | CCN1CCCC1CNc1nc(Nc2ccc(OC)c(F)c2)nc(NC2CCCC2)n1 (stereo not drawn) [Compound 56, N^2-cyclopentyl-N^4-[(1-ethyl-2-pyrrolidinyl)methyl]-N^6-(3-fluoro-4-methoxyphenyl)-1,3,5-triazine-2,4,6-triamine] | 0 to 25% |  | 

Row | SMILES | activity at 10 µM [1] | activity at 10 µM [2] | further results
17 | COc1ccc(Nc2nc(NC3CCCCCC3)nc(NC(C)(C)C)n2)cc1F [Compound 77, N^2-(tert-butyl)-N^4-cycloheptyl-N^6-(3-fluoro-4-methoxyphenyl)-1,3,5-triazine-2,4,6-triamine] | 0 to 25% |  | 
18 | CCN1CCCC1CNc1nc(Nc2ccc(OC)c(F)c2)nc(N2CCN(Cc3ccc4c(c3)OCO4)CC2)n1 (stereo not drawn) [Compound 72, N^6-[4-(1,3-benzodioxol-5-ylmethyl)-1-piperazinyl]-N^2-[(1-ethyl-2-pyrrolidinyl)methyl]-N^4-(3-fluoro-4-methoxyphenyl)-1,3,5-triazine-2,4-diamine] | 0 to 25% | 25 to 50% | 
19 | COc1ccc(Nc2nc(Cl)nc(NC3CCCCCC3)n2)cc1F [Compound 127, 6-Chloro-N-cycloheheptyl-N′-(3-fluoro-4-methoxy-phenyl)-[1,3,5]triazine-2,4-diamine] | 25 to 50% |  | 
20 | COc1ccc(Nc2nc(NC3CCCCCC3)nc(NC3CCC(C)CC3)n2)cc1F (stereo not drawn) [Compound 85, N^2-cycloheptyl-N^4-(3-fluoro-4-methoxyphenyl)-N^6-(4-methylcyclohexyl)-1,3,5-triazine-2,4,6-triamine] | 25 to 50% |  | 
21 | CCNc1nc(Nc2ccc(OC)c(F)c2)nc(NC2CCCCCC2)n1 [Compound 76, N^2-cycloheptyl-N^4-ethyl-N^6-(3-fluoro-4-methoxyphenyl)-1,3,5-triazine-2,4,6-triamine] | 0 to 25% |  | 
22 | CCN1CCCC1CNc1nc(NC2CCCCCC2)nc(N(C)c2ccc(OC)cc2)n1 (stereo not drawn) [Compound 42, N^2-cycloheptyl-N^4-[(1-ethyl-2-pyrrolidinyl)methyl]-N^6-(4-methoxyphenyl)-N^6-methyl-1,3,5-triazine-2,4,6-triamine] | 0 to 25% | 0 to 25% | 
23 | COc1ccc(Nc2nc(NC3CCCCCC3)nc(N3CCOCC3)n2)cc1F [Compound 175, N-Cycloheptyl-N′-(3-fluoro-4-methoxy-phenyl)-6-morpholin-4-yl-[1,3,5]triazine-2,4-di-amine] |  |  | inhibition at 10 µM [3]: 85 to 100%
24 | CCNc1nc(NCC2CCCN2CC)nc(Nc2ccc(OC)c(F)c2)n1 (stereo not drawn) [Compound 51, N^2-ethyl-N^4-[(1-ethyl-2-pyrrolidinyl)methyl]-N^6-(3-fluoro-4-methoxyphenyl)-1,3,5-triazine-2,4,6-triamine] | 0 to 25% |  | 
25 | CCN1CCCC1CNc1nc(NCC2CCCCC2)nc(Nc2ccc(OC)c(F)c2)n1 (stereo not drawn) [Compound 65, N^2-(cyclohexylmethyl)-N^4-[(1-ethyl-2-pyrrolidinyl)methyl]-N^6-(3-fluoro-4-methoxyphenyl)-1,3,5-triazine-2,4,6-triamine] | 0 to 25% | 25 to 50% | 
26 | COc1ccc(Nc2nc(NC3CCCCCC3)nc(OCc3cccc(C)n3)n2)cc1Cl |  |  | inhibition at 10 µM [4]: 60%
27 | COc1ccc(Nc2nc(NC3CCCCCC3)nc(OCCOc3ccccc3F)n2)cc1Cl |  |  | Inflammation Data (result in words): Not Active
28 | CCN1CCCC1CNc1nc(Nc2ccccn2)nc(NC2CCCCCC2)n1 (stereo not drawn) [Compound 34, N^2-cycloheptyl-N^4-[(1-ethyl-2-pyrrolidinyl)methyl]-N^6-(2-pyridinyl)-1,3,5-triazine-2,4,6-triamine] | 0 to 25% | 0 to 25% | 
29 | CCOc1ccc(Nc2nc(NCC3CCCN3CC)nc(NC3CCCCCC3)n2)cc1 (stereo not drawn) [Compound 32, N^2-cycloheptyl-N^4-(4-ethoxyphenyl)-N^6-[(1-ethyl-2-pyrrolidinyl)methyl]-1,3,5-triazine-2,4,6-triamine] |  | 0 to 25% | 
30 | CCN1CCC[C@H]1CNc1nc(NC2CCCCCC2)nc(N(CC#N)c2ccccc2)n1 [Compound 143, ({4-cycloheptylamino-6-[((S)-1-ethyl-pyrrolidin-2-ylmethyl)-amino]-1,3,5-triazin-2-yl}-phenyl-amino)-acetonitrile] | 0 to 25% |  | % IL6 production compare to TNF stimulation of IL6 (100%), Compds tested @ 10 uM HAEC, IL6 (HAEC, TNF stimulation = 100%): 18.88%
31 | CCN1CCCC1CNc1nc(NC2CCCCCC2)nc(N(CC#N)c2ccccc2)n1 (stereo not drawn) [Compound 44, [(4-(cycloheptylamino)-6-{[(1-ethyl-2-pyrrolidinyl)methyl]amino}-1,3,5-triazin-2-yl)(phenyl)amino]acetonitrile] |  | 0 to 25% | 
32 | COc1ccc(Nc2nc(NC3CCCCCC3)nc(OC(C)C)n2)cc1Cl [drawing 1598] |  |  | inhibition at 10 µM [4]: < 25%
